# Measurements published in US20220142977A1, “METHODS OF TREATING CONDITIONS RELATED TO THE S1P1 RECEPTOR” (ARENA PHARMACEUTICALS, INC., priority 2019, published 2022).
# Structures can show the parent of a compound that is named as a salt.
# How the values were obtained:
# [1] = system: patients with moderate to severe ulcerative colitis; assay: Randomized, double-blind, placebo-controlled dose-ranging study in ulcerative colitis: efficacy (Mayo scores, endoscopic improvement, remission); format: in vivo, human; settings: for improvement in 2-component Mayo Score (0 to 6) relative to placebo / improvement in Total Mayo Score (0 to 12) relative to placebo: Week 12
# Description: A randomized, double-blind, placebo-controlled, parallel-group, dose-ranging study to assess safety and efficacy of two orally administered doses (1 mg and 2 mg) of Compound 1 in patients with ulcerative colitis was conducted. The table below provides a summary of demographic data by treatment group.
# Patients were randomized into a double-blind, placebo-controlled study to receive once daily (q.d.) doses of the L-arginine salt of Compound 1 (1 mg or 2 mg) or matching placebo in a 1:1:1 ratio for 12 weeks. The trial enrolled 156 patients with moderate to severe ulcerative colitis (3-component Mayo score of 4-9 that includes endoscopic subscore ≥2, rectal bleeding score ≥1).
# The treatment formulation was composed of immediate-release, hard gelatin capsules containing L-arginine salt of Compound 1. The placebo was composed of hard gelatin capsules containing microcrystalline cellulose.
# Patients were instructed to take their capsule on an empty stomach (overnight fast of approximately 8 hours) and to avoid eating for approximately 1 hour after dosing.
# The primary objective of this proof-of-concept study was to determine the effect of treatment with the L-arginine salt of Compound 1 in changing 3-component Mayo Clinic score (score ranging from 0 to 9, including stool frequency, rectal bleeding and findings on endoscopy) at 12 weeks.
# Secondary endpoints were the proportion of patients who achieve endoscopic improvement at Week 12; change in 2-component Mayo Score (score ranging from 0 to 6, including rectal bleeding and findings on endoscopy) at Week 12; and change in Total Mayo Score (score ranging from 0 to 12, including stool frequency, rectal bleeding, findings on endoscopy, and physician global assessment) at Week 12.
# Exploratory endpoints included change from baseline in lymphocyte counts at Weeks 1, 2, 4, 8, and 12; proportion of patients achieving clinical remission at Week 12; and proportion of patients who achieve clinical response at Week 12.
# ANCOVA model, adjusted for current oral corticosteroid use, prior exposure to TNF-alpha antagonists, and baseline value, was used to estimate changes in Mayo Clinic Score. Mantel-Haenszel method (estimated treatment difference by adjusting current oral corticosteroid use and prior exposure to TNF-alpha antagonists) used to estimate proportion difference for dichotomous parameters. Missing individual Mayo subscores impacting efficacy measures were imputed using multiple imputation methodology with observed case analysis for sensitivity. Statistical testing was pre-specified as one-sided with p<0.025 reflecting conventional statistical significance. Hierarchical closed testing procedure for primary and secondary endpoints at 0.05 alpha level was used.
# [2] = system: patients with moderate to severe ulcerative colitis; assay: Same study: safety and tolerability (TEAEs, heart rate, AV conduction, LFTs, infections); format: in vivo, human
smiles,measurement,setting,value
O=C(O)C[C@H]1CCc2c1[nH]c1ccc(OCc3ccc(C4CCCC4)c(C(F)(F)F)c3)cc21 [L-arginine salt of Compound 1],improvement in 3-component Partial Mayo Score (0 to 9) relative to placebo,"[1]; 1 mg q.d. oral, week 12, p=0.146, not significant",0.43
same,improvement in 2-component Mayo Score (0 to 6) relative to placebo,"[1]; 1 mg, p=0.086, not significant",0.39
same,improvement in Total Mayo Score (0 to 12) relative to placebo,"[1]; 1 mg, p=0.128, not significant",0.60
same,improvement in 3-component Partial Mayo Score (0 to 9) relative to placebo,"[1]; 2 mg q.d. oral, week 12, p=0.009",0.99
same,improvement in Total Mayo Score (0 to 12) relative to placebo,"[1]; 2 mg, p=0.010",1.27
same,improvement in 2-component Mayo Score (0 to 6) relative to placebo,"[1]; dose not printed (2 mg implied), p=0.002",0.84
same,primary and all secondary endpoints,"[1]; high dose (2 mg), week 12",achieved the primary and all secondary endpoints with statistical significance
same,"serious adverse events (SAEs), % of patients","[2]; 2 mg, placebo 11.1%",0%
same,heart rate on hourly ECGs (in words),"[2]; Day 1, both 1 mg and 2 mg groups",mild decrease
same,mean change in heart rate on hourly ECGs,"[2]; Day 1, either group (1 mg, 2 mg), any timepoint",< 10 bpm
same,severity of adverse events in infections and infestations,"[2]; assessed by investigators, majority upper respiratory tract infections",mild or moderate
same,increases in liver function tests (LFTs) compared to placebo,[2]; in vivo,no increases
same,reports of macular edema,[2]; in vivo,no reports
same,reports of pulmonary function test abnormalities,[2]; in vivo,no reports
same,serious adverse events related to heart rate changes or AV block,[2]; in vivo,No serious adverse events
same,discontinuations from study related to bradycardia or AV block,[2]; throughout the study,no discontinuations
same,impact on heart rate and AV conduction,[2]; throughout the study,low
"O=C(O)C[C@H]1CCc2c1[nH]c1ccc(OCc3ccc(C4CCCC4)c(C(F)(F)F)c3)cc21 [Compound 1, (R)-2-(7-(4-cyclopentyl-3-(trifluoromethyl)benzyloxy)-1,2,3,4-tetrahydrocyclopenta[b]indol-3-yl)acetic acid]",improvement in individuals with prior vedolizumab use or a history of pancolitis (subgroup analyses),"[1]; subgroups, 2 mg, week 12 (FIGS. 3A-3D)",improvement is not seen
